Results: ChEMBL document CHEMBL1142033, “Synthesis of isonicotinic acid N'-arylidene-N-[2-oxo-2-(4-aryl-piperazin-1-yl)-ethyl]-hydrazides as antituberculosis agents” (2005)
≈ marks a conversion by molar mass, not a printed value.

Key:
Format in all cases: functional
[1] = tested on: Mycobacterium tuberculosis; test: Minimum inhibitory concentration against resistant Mycobacterium tuberculosis clinical isolates; N=9
[2] = tested on: Mycobacterium tuberculosis; test: Minimum inhibitory concentration against resistant Mycobacterium tuberculosis clinical isolates; N=9; Range 2-4
[3] = tested on: Mycobacterium tuberculosis; test: Minimum inhibitory concentration against resistant Mycobacterium tuberculosis clinical isolates; N=9; range=4-8
[4] = tested on: Mycobacterium tuberculosis; test: Minimum inhibitory concentration against resistant Mycobacterium tuberculosis clinical isolates; N=9; range=8-16
[5] = tested on: Mycobacterium tuberculosis; test: Minimum inhibitory concentration against resistant Mycobacterium tuberculosis clinical isolates; N=9; Range=8-16
[6] = tested on: Mycobacterium tuberculosis; test: Minimum inhibitory concentration against resistant Mycobacterium tuberculosis clinical isolates; N=9; Range=2-16

Row | SMILES | MIC [1] [µg/mL] | other results
1 | O=C(CN(/N=C/c1ccccc1Cl)C(=O)c1ccncc1)N1CCN(c2ccc(F)cc2)CC1 | > 16 | 
2 | O=C(CN(/N=C/c1cccc(Cl)c1)C(=O)c1ccncc1)N1CCN(c2ccc([N+](=O)[O-])cc2)CC1 | > 16 | 
3 | O=C(CN(/N=C/c1ccc(Cl)cc1Cl)C(=O)c1ccncc1)N1CCN(c2ccc(Cl)cc2)CC1 | 16 (≈ 30.1 µM) | 
4 | O=C(CN(/N=C/c1ccc(Cl)cc1Cl)C(=O)c1ccncc1)N1CCN(c2ccc(F)cc2)CC1 | > 16 | 
5 | O=C(CN(/N=C/c1cccc(Cl)c1)C(=O)c1ccncc1)N1CCN(c2ccc(Cl)cc2)CC1 | > 16 | 
6 | COc1ccccc1N1CCN(C(=O)CN(/N=C/c2ccc(Cl)cc2)C(=O)c2ccncc2)CC1 | > 16 | 
7 | COc1ccccc1N1CCN(C(=O)CN(/N=C/c2ccccc2Cl)C(=O)c2ccncc2)CC1 | > 16 | 
8 | O=C(CN(/N=C/c1ccc(Cl)cc1)C(=O)c1ccncc1)N1CCN(c2ccc(Cl)cc2)CC1 | > 16 | 
9 | O=C(CN(/N=C/c1ccc(Cl)cc1Cl)C(=O)c1ccncc1)N1CCN(c2cccc(C(F)(F)F)c2)CC1 | > 16 | 
10 | O=C(CN(/N=C/c1ccccc1Cl)C(=O)c1ccncc1)N1CCN(c2ccccc2)CC1 | > 16 | 
11 | O=C(CN(/N=C/c1ccccc1Cl)C(=O)c1ccncc1)N1CCN(c2ccc([N+](=O)[O-])cc2)CC1 | > 16 | 
12 | Cc1cccc(N2CCN(C(=O)CN(/N=C/c3ccc(Cl)cc3Cl)C(=O)c3ccncc3)CC2)c1 | > 16 | 
13 | O=C(CN(/N=C/c1ccccc1Cl)C(=O)c1ccncc1)N1CCN(c2cccc(Cl)c2)CC1 | > 16 | 
14 | Cc1cccc(N2CCN(C(=O)CN(/N=C/c3ccccc3Cl)C(=O)c3ccncc3)CC2)c1 | > 16 | 
15 | O=C(CN(/N=C/c1ccc(Cl)cc1)C(=O)c1ccncc1)N1CCN(c2ccc(F)cc2)CC1 | > 16 | 
16 | COc1ccccc1N1CCN(C(=O)CN(/N=C/c2cccc(Cl)c2)C(=O)c2ccncc2)CC1 | > 16 | 
17 | O=C(CN(/N=C/c1ccccc1Cl)C(=O)c1ccncc1)N1CCN(c2cccc(C(F)(F)F)c2)CC1 | > 16 | 

Row | SMILES | MIC [1] [µg/mL] | other results
18 | O=C(CN(/N=C/c1ccc(Cl)cc1Cl)C(=O)c1ccncc1)N1CCN(c2cccc(Cl)c2)CC1 | > 16 | 
19 | O=C(CN(/N=C/c1cccc(Cl)c1)C(=O)c1ccncc1)N1CCN(c2ccc(F)cc2)CC1 | > 16 | 
20 | O=C(CN(/N=C/c1cccc(Cl)c1)C(=O)c1ccncc1)N1CCN(c2cccc(Cl)c2)CC1 | > 16 | 
21 | O=C(CN(/N=C/c1ccc(Cl)cc1)C(=O)c1ccncc1)N1CCN(c2ccc([N+](=O)[O-])cc2)CC1 | > 16 | 
22 | COc1ccccc1N1CCN(C(=O)CN(/N=C/c2ccc(Cl)cc2Cl)C(=O)c2ccncc2)CC1 | > 16 | 
23 | O=C(CN(/N=C/c1ccccc1Cl)C(=O)c1ccncc1)N1CCN(c2ccc(Cl)cc2)CC1 | > 16 | 
24 | O=C(CN(/N=C/c1ccc(Cl)cc1Cl)C(=O)c1ccncc1)N1CCN(Cc2ccc3c(c2)OCO3)CC1 |  | MIC [2]: 4 µg/mL (≈ 7.21 µM)
25 | O=C(CN(/N=C/c1ccc(Cl)cc1Cl)C(=O)c1ccncc1)N1CCN(c2ccc([N+](=O)[O-])cc2)CC1 | > 16 | 
26 | O=C(CN(/N=C/c1cccc(Cl)c1)C(=O)c1ccncc1)N1CCN(Cc2ccc3c(c2)OCO3)CC1 |  | MIC [3]: 8 µg/mL (≈ 15.4 µM)
27 | O=C(CN(/N=C/c1ccc(Cl)cc1Cl)C(=O)c1ccncc1)N1CCN(c2ccccc2)CC1 | > 16 | 
28 | O=C(CN(/N=C/c1ccccc1Cl)C(=O)c1ccncc1)N1CCN(Cc2ccc3c(c2)OCO3)CC1 |  | MIC [4]: 16 µg/mL (≈ 30.8 µM)
29 | Cc1cccc(N2CCN(C(=O)CN(/N=C/c3cccc(Cl)c3)C(=O)c3ccncc3)CC2)c1 | > 16 | 
30 | O=C(CN(/N=C/c1ccc(Cl)cc1)C(=O)c1ccncc1)N1CCN(Cc2ccc3c(c2)OCO3)CC1 |  | MIC [3]: 8 µg/mL (≈ 15.4 µM)
31 | O=C(CN(/N=C/c1ccccc1Cl)C(=O)c1ccncc1)N1CCN(c2cccc(Cl)c2Cl)CC1 | > 16 | 
32 | O=C(CN(/N=C/c1cccc(Cl)c1)C(=O)c1ccncc1)N1CCN(c2ccccc2)CC1 | > 16 | 
33 | NNC(=O)c1ccncc1 [ISONIAZID] |  | MIC [5]: 16 µg/mL (≈ 117 µM)
34 | CO[C@H]1/C=C/O[C@@]2(C)Oc3c(C)c(O)c4c(O)c(c(/C=N/N5CCN(C)CC5)c(O)c4c3C2=O)NC(=O)/C(C)=C\C=C\[C@H](C)[C@H](O)[C@@H](C)[C@@H](O)[C@@H](C)[C@H](OC(C)=O)[C@@H]1C [RIFAMPIN] |  | MIC [6]: 16 µg/mL (≈ 19.4 µM)
